The values below are quoted from earlier work in PMC3606899 (Journal of molecular medicine (Berlin, Germany), 2012).

The series concerns the target PHD2 (Homo sapiens, UniProt Q9GZT9). As to the kind of experiment: PHD inhibitor screen, IC50. Format: biochemical.

Chain of PHD2 (Q9GZT9 2-426): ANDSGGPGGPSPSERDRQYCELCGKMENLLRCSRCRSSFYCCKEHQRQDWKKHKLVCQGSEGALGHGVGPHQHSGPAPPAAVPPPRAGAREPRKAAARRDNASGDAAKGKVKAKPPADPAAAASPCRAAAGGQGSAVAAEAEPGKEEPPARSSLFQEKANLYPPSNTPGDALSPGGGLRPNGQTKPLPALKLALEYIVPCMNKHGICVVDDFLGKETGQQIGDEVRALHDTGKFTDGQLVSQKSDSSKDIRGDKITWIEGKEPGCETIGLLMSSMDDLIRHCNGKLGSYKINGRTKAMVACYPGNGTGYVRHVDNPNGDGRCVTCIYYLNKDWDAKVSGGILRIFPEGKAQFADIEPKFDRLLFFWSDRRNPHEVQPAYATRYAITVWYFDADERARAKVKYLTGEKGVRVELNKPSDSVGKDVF

As for AKB-4924, the IC50 was 14 µM.
